Several values for one entry are separate records, joined by “and”; a condition that tells them apart may be missing. Identical values can stand only once.
Tests used:
Format in all cases: cell-based
Jurkat cells = assay: Cell viability assay (CellTiter-Glo), Jurkat
Experimental: (§1) The cell lines Jurkat (TIB-152), El4 (TIB-39), Daudi (ccl-213), RS4:11 (crl-1873), A549 (ccl-185), HepG2 (hb-8065) and PANC-1 (crl-1469) were purchased from ATCC (American Type Culture Collection), and MGC-803 (C6582) was purchased from Beyotime (https://www.beyotime.com/product/C6582.htm). […] Daudi and RS4:11 cells were cultured in RPMI-1640 medium (HyClone, SH30809.01) and 10% FBS (Gibco, 10099-141), whereas HepG2, MGC-803 and PANC-1 cells were cultured in MDEM (HyClone, SH30243.01). Cells were maintained at 37 °C under a humidified, 5% (v/v) CO2-containing atmosphere.
(§2) Cell viability was measured using CellTiter-Glo® 2.0 Reagent (Promega, G9242). […] After different inhibitors were added into serum-free medium and cultured for 4 h (RS4:11 for 6 h), FBS were supplemented to 10% and then incubated totally for 24 h or 48 h. Finally, the IC50 values were calculated based on measurements using a microplate reader (Thermo, Varioskan LUX). Statistical analysis was performed using software GraphPad Prism 7.0.

[1] = test system: A549 cells overexpressing BCL-2 G101V; assay: Cell viability assay, A549 stably overexpressing BCL-2 G101V; conditions: A549 BCL2/G101V, single wells
Experimental: as §2
(§3) Lentivirus packaging vectors pMDLg/pRRE, pRSV-Rev, and pVSV-G were obtained from Prof. Han Jiahuai’s lab (Xiamen University). Lentiviruses were produced using 3rd-generation lentivirus packaging plasmids transiently transfected into HEK293T cells with the constructs of interest using 0.25 M CaCl2. Media was changed after 16 h, and supernatants containing infectious virus particles were harvested 24 h later. A second viral harvest was made following a further 24 h incubation with fresh media. Virus containing supernatant was filtered through a […], and stored at 4 °C or −80 °C until being used. Typically, A549 cells were seeded into 10 cm cell culture dishes at 4 ~ 8 × 10^5 cells/cm^2. An equivalent volume of virus containing culture medium was added along with polybrene (Sigma) to a final concentration of 10 µg/mL. Cells were incubated at 37 °C for 20 h, before they were washed and resuspended in fresh culture media. The expression level of BCL-2 was measured by qPCR and western blot methods.

Daudi cells = assay: Cell viability assay (CellTiter-Glo), Daudi; conditions: for raw viability signal, replicates: Daudi
In short: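 Compounds added in serum-free medium for 4 h (RS4:11: 6 h), then FBS brought to 10% and incubation continued to 24 h or 48 h total at 37 °C, 5% CO2. Viability by CellTiter-Glo 2.0 luminescence; IC50 calculated.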

[2] = test system: A549 cells overexpressing BCL-2 WT; assay: Cell viability assay, A549 stably overexpressing BCL-2 WT; conditions: A549 BCL2-WT, single wells
Experimental: as §2, §3

A549 cells (control) = assay: Cell viability assay (CellTiter-Glo), normal A549 (control); conditions: for raw luminescence reading / control inhibiton rate: A549 control, single wells
Experimental: as §1, §2

O=C(c1cc(-c2cc3c(cc2C(=O)N2Cc4ccccc4C[C@H]2CN2CCOCC2)OCO3)n2c1CCCC2)N(c1ccccc1)c1ccc(O)cc1 [S55746]
raw viability signal, replicates (Jurkat cells; 1.5625 uM): 1714000 and 1704000 and 1684000 and 1696000 and 1705000 and 1721000
raw viability signal, replicates (Jurkat cells; 3.125 uM): 1448000 and 1401000 and 1343000 and 1377000 and 1375000 and 1402000
raw viability signal, replicates (Jurkat cells; 6.25 uM): 1130000 and 1065000 and 1037000 and 1061000 and 1063000 and 1084000
raw viability signal, replicates (Jurkat cells; 12.5 uM): 892300 and 842800 and 825800 and 842200 and 844000 and 860800
raw viability signal, replicates (Jurkat cells; 25 uM): 395000 and 492300 and 419200 and 469600 and 467400 and 468800
raw viability signal, replicates (Jurkat cells; 50 uM): 146000 and 160200 and 184200 and 190000 and 211800 and 228200
BCL2/G101V inhibiton rate ([1]; 3.125 uM): 8% and 4.44% and 2.43% and 0.638% and 1% and 2%
raw luminescence reading ([1]; 3.125 uM): 671600 and 698900 and 713600 and 726700 and 723800 and 716000
BCL2/G101V inhibiton rate ([1]; 6.25 uM): 13% and 10% and 7.56% and 8% and 9%
raw luminescence reading ([1]; 6.25 uM): 633100 and 639000 and 656800 and 676100 and 673100 and 668300
BCL2/G101V inhibiton rate ([1]; 12.5 uM): 26% and 24% and 22% and 23% and 21%
raw luminescence reading ([1]; 12.5 uM): 539700 and 558400 and 568300 and 571800 and 566400 and 579500
BCL2/G101V inhibiton rate ([1]; 25 uM): 24% and 23% and 22% and 21%
raw luminescence reading ([1]; 25 uM): 553400 and 560600 and 571800 and 579800 and 580700 and 578200
BCL2/G101V inhibiton rate ([1]; 50 uM): 39% and 38% and 36% and 35% and 34%
raw luminescence reading ([1]; 50 uM): 444500 and 453000 and 466400 and 464700 and 472100 and 479600
BCL2/G101V inhibiton rate ([1]; 100 uM): 46% and 45% and 42%
raw luminescence reading ([1]; 100 uM): 392800 and 395900 and 399700 and 397700 and 405800 and 422300
BCL2/G101V inhibiton rate ([1]; 200 uM): 48% and 49% and 45% and 44%
raw luminescence reading ([1]; 200 uM): 382600 and 370800 and 376000 and 400600 and 410900
IC50 (Daudi cells; 48 h treatment, CellTiter-Glo): 10 ± 0.4 µM
raw viability signal, replicates (Daudi cells; 3.125 uM): 1593 and 1426 and 1310 and 1450 and 1626 and 1878
raw viability signal, replicates (Daudi cells; 6.25 uM): 1078 and 1072 and 931.3 and 1127 and 973.9 and 1033
raw viability signal, replicates (Daudi cells; 12.5 uM): 455.5 and 506.4 and 780.1 and 751.1 and 919.0 and 638.7
raw viability signal, replicates (Daudi cells; 25 uM): 431.3 and 645.0 and 475.8 and 693.5 and 515.7 and 555.5
raw viability signal, replicates (Daudi cells; 50 uM): 362.9 and 364.8 and 354.3 and 237.1 and 424.9 and 407.4
raw viability signal, replicates (Daudi cells; 100 uM): 330.6 and 360.1 and 410.7 and 529.9 and 565.2 and 706.1
BCL2-WT inhibition rate ([2]; 3.125 uM): 2.61% and 4.22% and -4.33% and 4% and -2.32%
raw luminescence reading ([2]; 3.125 uM): 861200 and 847000 and 922600 and 850300 and 904800 and 882000
BCL2-WT inhibition rate ([2]; 6.25 uM): 12% and 11% and 10% and 8% and 15%
raw luminescence reading ([2]; 6.25 uM): 774200 and 789000 and 799200 and 813400 and 753900 and 827800
BCL2-WT inhibition rate ([2]; 12.5 uM): 25% and 23% and 22% and 26%
raw luminescence reading ([2]; 12.5 uM): 665800 and 680900 and 679300 and 687300 and 653500 and 700500
BCL2-WT inhibition rate ([2]; 25 uM): 32% and 31%
raw luminescence reading ([2]; 25 uM): 602600 and 612300 and 599000 and 609600 and 600600 and 625900
BCL2-WT inhibition rate ([2]; 50 uM): 45%
raw luminescence reading ([2]; 50 uM): 489600 and 486500 and 483800 and 490200 and 490400 and 500400
BCL2-WT inhibition rate ([2]; 100 uM): 51% and 50%
raw luminescence reading ([2]; 100 uM): 433600 and 432600 and 430000 and 431900 and 437900 and 439800
BCL2-WT inhibition rate ([2]; 200 uM): 51% and 53% and 52% and 50%
raw luminescence reading ([2]; 200 uM): 434700 and 435900 and 419200 and 420100 and 446100 and 441200
IC50 (A549 cells (control); 48 h, CellTiter-Glo, n = 6, read-out: IC50 A549 control (original cells)): 74.1 ± 4.5 µM
raw luminescence reading (A549 cells (control); 3.125 uM): 680400 and 663400 and 563700 and 629300 and 626800 and 613100
raw luminescence reading (A549 cells (control); 6.25 uM): 624000 and 698000 and 600600 and 640100 and 681300 and 637500
raw luminescence reading (A549 cells (control); 12.5 uM): 490700 and 564100 and 465600 and 496900 and 544400 and 512100
control inhibiton rate (A549 cells (control); 25 uM): 29% and 19% and 33% and 30% and 20% and 28%
raw luminescence reading (A549 cells (control); 25 uM): 465600 and 531000 and 436600 and 460300 and 522200 and 471500
control inhibiton rate (A549 cells (control); 50 uM): 45% and 39% and 47% and 38% and 42%
raw luminescence reading (A549 cells (control); 50 uM): 357700 and 400600 and 345700 and 358400 and 403100 and 379300
control inhibiton rate (A549 cells (control); 100 uM): 58% and 52% and 57% and 50% and 55%
raw luminescence reading (A549 cells (control); 100 uM): 277600 and 315100 and 274100 and 282200 and 324600 and 296100
control inhibiton rate (A549 cells (control); 200 uM): 64% and 60% and 63% and 57% and 61%
raw luminescence reading (A549 cells (control); 200 uM): 232800 and 260700 and 234900 and 239800 and 281200 and 257400
